Key:
Type in all cases: biochemical, mouse
[1] = tested on: anti-Compound 4i antibodies; assay: Fluorescence esterolytic assay of twelve anti-Compound 4i gamma-globulins with Compound 5; conditions: two of twelve anti-Compound 4i antibodies, first 5 minutes of incubation
Experimental: (§1) A Perkin-Elmer LS-5 fluorescence spectrometer was operated at a fixed wavelength, using 355 nanometers (nm) for excitation and measuring the emission at 455 nm. A stock solution of the coumarin ester 5 was prepared in dioxane and was diluted to the desired concentrations in Tris-HCl (50 mM, pH 7) or sodium phosphate (50 mM, pH 4-9).
(§2) Reactions were run at 23 degrees C and were initiated by the addition of an aliquot of antibody solution (1 mg/ml) to substrate solutions to provide a final protein concentration of 100 nM. Final fluorescence values were determined by hydrolysis of the substrate with pig liver esterase. The observed reaction rate was corrected for spontaneous hydrolysis. Reaction kinetics were studied by measuring initial rates under pseudo-first order conditions. Active protein concentration was extrapolated from fluorescence values at the end of the reaction. The kinetic parameters were obtained by fitting the data to a hyperbolic curve and from double reciprocal plots. Inhibition constants were determined from the Lineweaver-Burk plot data with at least five inhibitor concentrations. […]
The fluorescence change upon hydrolysis of coumarin esters is easily detectable at nanomolar concentrations.
The practical range of pH for the assay is limited by the rapid spontaneous rate of hydrolysis of an ester Compound 5 above pH 8.0. […] Any change in fluorescence above background was noted. […]

[2] = tested on: Monoclonal Receptor 22F5; assay: Kinetics of hydrolysis by receptor 22F5
Description: Reaction kinetics were studied using three reactant ligands as substrates for monoclonal receptors 37G2 and 22F5. Data from initial rates were consistent with Michaelis-Menten reaction mechanism for a usual enzyme-substrate system. Initial rates were followed using at 271 nm using a U.V.-visible spectorphotometer for Compound 17, and a fluorescence spectrometer for Compounds 5 and 20, using an excitation wavelength of 355 nm and an emission wavelength of 455 nm for both compounds.
Lineweaver-Burke plots for the catalyzed hydrolysis of Compounds 17, 5 and 20 obtained in the presence and absence of Compound 12i as inhibitor were prepared as discussed for FIG. 4. In particular, Compound 17 was present at concentrations of 1-16 uM with inhibitor concentrations of 100 and 300 nanomolar (nM). Compound 5 was present at concentrations of 1-10 uM with inhibitor concentrations of 100 and 200 nM. Compound 20 was present at concentrations of 2-20 uM with inhibitor concentrations of 25 and 100 nM.
*Fluorescence assays using Compounds 20 and 5 were carried out in a
PerkinElmer fluorescence spectrophotometer (moded LS5; Oakbrook, IL) usin
200 nanomolar receptor (based on a molecular weight of 150,000 daltons) i
50 mM phosphate buffer at a pH value of 8.0. The reactant ligand was
dissolved in dioxane and admixed in the amounts discussed above. Two
milliliters of reaction solution were utilized as was a dioxane
concentration of 2 percent by volume. […]

[3] = tested on: P2 57G4; assay: Catalytic hydrolysis by receptor P2 57G4
Experimental: (§3) Two further catalytic monoclonal receptors were similarly prepared by another fusion using Compound 2i linked to an antigenic carrier as immunogen. Those two catalytic receptor molecules and their hybridomas were designated "P2 50D8" and "P2 57G4".
(§4) In one study, twenty-eight monoclonal anti-hapten antibodies to phosphonate 2i from two separate fusion experiments were assayed. […] Antibodies to Compound 4i as hapten were assayed in the same manner. Twelve gamma-globulins were screened as described above. Compound 5 is homologous only in the acyl portion of this larger hapten; however, all but three of these cross-reacted with smaller phosphonate 2 in an ELISA assay as described herein. For two of these there was observed a fluorescence change, occurring in the first 5 minutes of incubation, which corresponds to about 50 percent of that for complete hydrolysis. The background rate of hydrolysis was reestablished after this initial reaction leveled off.

[4] = tested on: twenty-eight monoclonal anti-hapten antibodies to phosphonate 2i; assay: Fluorescence assay of twenty-eight anti-phosphonate 2i antibodies with Compound 5; conditions: pH 7.2
Experimental: as §1
as §2, with “Reaction kinetics were studied by measuring initial rates under pseudo-first order conditions.” left out, “The kinetic parameters were obtained by fitting the data to a hyperbolic curve and from double reciprocal plots.” left out
The practical range of pH for the assay is limited by the rapid spontaneous rate of hydrolysis of an ester Compound 5 above pH 8.0. […] Any change in fluorescence above background was noted.
In one study, twenty-eight monoclonal anti-hapten antibodies to phosphonate 2i from two separate fusion experiments were assayed. […] For two of these there was observed a fluorescence change, occurring in the first 5 minutes of incubation, which corresponds to about 50 percent of that for complete hydrolysis. […]

[5] = tested on: P2 50D8; assay: Catalytic hydrolysis by receptor P2 50D8
Experimental: as §3, §4

Km ([2]; 50 mM phosphate pH 8.0, 200 nM receptor, 2% dioxane, figure = Km × 10^6): 1.4 µM
kcat ([2]; pH 8.0): 0.0022 s⁻¹
Vmax ([2]; pH 8.0, 200 nM receptor, figure = Vmax × 10^9): 0.0912 µM/min
catalytic hydrolysis by P2 57G4 [3]: capable of catalytically hydrolyzing
catalytic hydrolysis by P2 50D8 [5]: capable of catalytically hydrolyzing
Structure (SMILES): O=C(Cc1ccc(NC(=O)C(F)(F)F)cc1)Oc1ccc2ccc(=O)oc2c1 [Compound 5]
fluorescence change as share of complete hydrolysis [1]: about 50%
reactivity with Compound 5 in fluorescence assay [4]: None of these were reactive

Source: US5126258A (priority 1988, dated 1992)
